{
  "source": "patent US20230201217A1",
  "about": "(priority 2019, published 2023)",
  "system": "cynomolgus monkeys",
  "experiment": "14-day nasogastric gavage GLP toxicity study in cynomolgus monkeys",
  "format": "in vivo, cynomolgus monkey",
  "settings": "for Bone marrow, femur: Depletion, mixed; number with observation / Liver: Hypertrophy, hepatocellular, panlobular; number with observation / Thymus: Depletion, lymphoid, cortex; number with observation: 3 examined",
  "description": "Assessments of neurobehavioral effects and general toxicity were based on mortality, functional observational battery (FOB) evaluations, clinical observations, body weight, and body temperature; ophthalmoscopic, electrocardiographic examinations; and anatomic and clinical pathology. The anatomical pathology evaluations included histopathology of a full list of tissues from all animals and a comprehensive evaluation of the central nervous system (including selected peripheral nerves) utilizing whole body perfusion and special stains. Bone marrow smears from all animals were evaluated microscopically. Complete differentials and myeloid-erythroid (ME) ratios were performed. Toxicokinetic assessment was conducted for the test article and metabolites.",
  "data": [
    {"compound": "COCCC1CC2CN3CCc4c([nH]c5ccccc45)C(C(=O)OC)(C2)C13.Cl", "note": "(stereo not shown) [18-MC HCl, 18-Methoxycoronaridine hydrochloride]", "values": [
      {"measurement": "HED of well tolerated dose", "setting": "50 mg/kg/day", "result": 16, "unit": "mg/kg/day"},
      {"measurement": "Bone marrow, femur: Depletion, mixed, mild; number with observation", "setting": "50 mg/kg/day F", "result": 0},
      {"measurement": "Bone marrow, femur: Depletion, mixed, minimal; number with observation", "setting": "50 mg/kg/day F", "result": 0},
      {"measurement": "Bone marrow, femur: Depletion, mixed, moderate; number with observation", "setting": "50 mg/kg/day F", "result": 0},
      {"measurement": "Bone marrow, rib: Depletion, mixed, mild; number with observation", "setting": "50 mg/kg/day F", "result": 0},
      {"measurement": "Bone marrow, rib: Depletion, mixed, minimal; number with observation", "setting": "50 mg/kg/day F", "result": 0},
      {"measurement": "Bone marrow, rib: Depletion, mixed, moderate; number with observation", "setting": "50 mg/kg/day F", "result": 0},
      {"measurement": "Bone marrow, rib: Depletion, mixed; number with observation", "setting": "50 mg/kg/day F", "result": 0},
      {"measurement": "Bone marrow, sternum: Depletion, mixed, mild; number with observation", "setting": "50 mg/kg/day F", "result": 0},
      {"measurement": "Bone marrow, sternum: Depletion, mixed, minimal; number with observation", "setting": "50 mg/kg/day F", "result": 0},
      {"measurement": "Bone marrow, sternum: Depletion, mixed, moderate; number with observation", "setting": "50 mg/kg/day F", "result": 0},
      {"measurement": "Bone marrow, sternum: Depletion, mixed; number with observation", "setting": "50 mg/kg/day F", "result": 0},
      {"measurement": "Liver: Hypertrophy, hepatocellular, panlobular, mild; number with observation", "setting": "50 mg/kg/day F", "result": 3},
      {"measurement": "Liver: Hypertrophy, hepatocellular, panlobular, minimal; number with observation", "setting": "50 mg/kg/day F", "result": 0},
      {"measurement": "Thymus: Depletion lymphoid, generalized, mild; number with observation", "setting": "50 mg/kg/day F", "result": 1},
      {"measurement": "Thymus: Depletion lymphoid, generalized, moderate; number with observation", "setting": "50 mg/kg/day F", "result": 0},
      {"measurement": "Thymus: Depletion lymphoid, generalized; number with observation", "setting": "50 mg/kg/day F", "result": 1},
      {"measurement": "Thymus: Depletion, lymphoid, cortex, mild; number with observation", "setting": "50 mg/kg/day F", "result": 0},
      {"measurement": "Thymus: Depletion, lymphoid, cortex, minimal; number with observation", "setting": "50 mg/kg/day F", "result": 2},
      {"measurement": "Thymus: Depletion, lymphoid, cortex, moderate; number with observation", "setting": "50 mg/kg/day F", "result": 0},
      {"measurement": "mean cumulative body gain (Days 1-14)", "setting": "50 mg/kg/day F", "result": -0.08, "unit": "kg"},
      {"measurement": "Bone marrow, femur: Depletion, mixed; number with observation", "setting": "50 mg/kg/day F", "result": 0},
      {"measurement": "Liver: Hypertrophy, hepatocellular, panlobular; number with observation", "setting": "50 mg/kg/day F", "result": 3},
      {"measurement": "Thymus: Depletion, lymphoid, cortex; number with observation", "setting": "50 mg/kg/day F", "result": 2},
      {"measurement": "Bone marrow, femur: Depletion, mixed, mild; number with observation", "setting": "50 mg/kg/day M", "result": 0},
      {"measurement": "Bone marrow, femur: Depletion, mixed, minimal; number with observation", "setting": "50 mg/kg/day M", "result": 0},
      {"measurement": "Bone marrow, femur: Depletion, mixed, moderate; number with observation", "setting": "50 mg/kg/day M", "result": 0},
      {"measurement": "Bone marrow, rib: Depletion, mixed, mild; number with observation", "setting": "50 mg/kg/day M", "result": 0},
      {"measurement": "Bone marrow, rib: Depletion, mixed, minimal; number with observation", "setting": "50 mg/kg/day M", "result": 0},
      {"measurement": "Bone marrow, rib: Depletion, mixed, moderate; number with observation", "setting": "50 mg/kg/day M", "result": 0},
      {"measurement": "Bone marrow, rib: Depletion, mixed; number with observation", "setting": "50 mg/kg/day M", "result": 0},
      {"measurement": "Bone marrow, sternum: Depletion, mixed, mild; number with observation", "setting": "50 mg/kg/day M", "result": 0},
      {"measurement": "Bone marrow, sternum: Depletion, mixed, minimal; number with observation", "setting": "50 mg/kg/day M", "result": 0},
      {"measurement": "Bone marrow, sternum: Depletion, mixed, moderate; number with observation", "setting": "50 mg/kg/day M", "result": 0},
      {"measurement": "Bone marrow, sternum: Depletion, mixed; number with observation", "setting": "50 mg/kg/day M", "result": 0},
      {"measurement": "Liver: Hypertrophy, hepatocellular, panlobular, mild; number with observation", "setting": "50 mg/kg/day M", "result": 0},
      {"measurement": "Liver: Hypertrophy, hepatocellular, panlobular, minimal; number with observation", "setting": "50 mg/kg/day M", "result": 0},
      {"measurement": "Thymus: Depletion lymphoid, generalized, mild; number with observation", "setting": "50 mg/kg/day M", "result": 0},
      {"measurement": "Thymus: Depletion lymphoid, generalized, moderate; number with observation", "setting": "50 mg/kg/day M", "result": 0},
      {"measurement": "Thymus: Depletion lymphoid, generalized; number with observation", "setting": "50 mg/kg/day M", "result": 0},
      {"measurement": "Thymus: Depletion, lymphoid, cortex, mild; number with observation", "setting": "50 mg/kg/day M", "result": 0},
      {"measurement": "Thymus: Depletion, lymphoid, cortex, minimal; number with observation", "setting": "50 mg/kg/day M", "result": 2},
      {"measurement": "Thymus: Depletion, lymphoid, cortex, moderate; number with observation", "setting": "50 mg/kg/day M", "result": 0},
      {"measurement": "mean cumulative body gain (Days 1-14)", "setting": "50 mg/kg/day M", "result": -0.22, "unit": "kg"},
      {"measurement": "Bone marrow, femur: Depletion, mixed; number with observation", "setting": "50 mg/kg/day M", "result": 0},
      {"measurement": "Liver: Hypertrophy, hepatocellular, panlobular; number with observation", "setting": "50 mg/kg/day M", "result": 0},
      {"measurement": "Thymus: Depletion, lymphoid, cortex; number with observation", "setting": "50 mg/kg/day M", "result": 2},
      {"measurement": "Bone marrow, femur: Depletion, mixed, mild; number with observation", "setting": "150 mg/kg/day F", "result": 0},
      {"measurement": "Bone marrow, femur: Depletion, mixed, minimal; number with observation", "setting": "150 mg/kg/day F", "result": 0},
      {"measurement": "Bone marrow, femur: Depletion, mixed, moderate; number with observation", "setting": "150 mg/kg/day F", "result": 0},
      {"measurement": "Bone marrow, rib: Depletion, mixed, mild; number with observation", "setting": "150 mg/kg/day F", "result": 0},
      {"measurement": "Bone marrow, rib: Depletion, mixed, minimal; number with observation", "setting": "150 mg/kg/day F", "result": 0},
      {"measurement": "Bone marrow, rib: Depletion, mixed, moderate; number with observation", "setting": "150 mg/kg/day F", "result": 0},
      {"measurement": "Bone marrow, rib: Depletion, mixed; number with observation", "setting": "150 mg/kg/day F", "result": 0},
      {"measurement": "Bone marrow, sternum: Depletion, mixed, mild; number with observation", "setting": "150 mg/kg/day F", "result": 0},
      {"measurement": "Bone marrow, sternum: Depletion, mixed, minimal; number with observation", "setting": "150 mg/kg/day F", "result": 0},
      {"measurement": "Bone marrow, sternum: Depletion, mixed, moderate; number with observation", "setting": "150 mg/kg/day F", "result": 0},
      {"measurement": "Bone marrow, sternum: Depletion, mixed; number with observation", "setting": "150 mg/kg/day F", "result": 0},
      {"measurement": "Liver: Hypertrophy, hepatocellular, panlobular, mild; number with observation", "setting": "150 mg/kg/day F", "result": 2},
      {"measurement": "Liver: Hypertrophy, hepatocellular, panlobular, minimal; number with observation", "setting": "150 mg/kg/day F", "result": 1},
      {"measurement": "Thymus: Depletion lymphoid, generalized, mild; number with observation", "setting": "150 mg/kg/day F", "result": 0},
      {"measurement": "Thymus: Depletion lymphoid, generalized, moderate; number with observation", "setting": "150 mg/kg/day F", "result": 0},
      {"measurement": "Thymus: Depletion lymphoid, generalized; number with observation", "setting": "150 mg/kg/day F", "result": 0},
      {"measurement": "Thymus: Depletion, lymphoid, cortex, mild; number with observation", "setting": "150 mg/kg/day F", "result": 2},
      {"measurement": "Thymus: Depletion, lymphoid, cortex, minimal; number with observation", "setting": "150 mg/kg/day F", "result": 0},
      {"measurement": "Thymus: Depletion, lymphoid, cortex, moderate; number with observation", "setting": "150 mg/kg/day F", "result": 1},
      {"measurement": "mean cumulative body gain (Days 1-14)", "setting": "150 mg/kg/day F", "result": -0.12, "unit": "kg"},
      {"measurement": "Bone marrow, femur: Depletion, mixed; number with observation", "setting": "150 mg/kg/day F", "result": 0},
      {"measurement": "Liver: Hypertrophy, hepatocellular, panlobular; number with observation", "setting": "150 mg/kg/day F", "result": 3},
      {"measurement": "Thymus: Depletion, lymphoid, cortex; number with observation", "setting": "150 mg/kg/day F", "result": 3},
      {"measurement": "Bone marrow, femur: Depletion, mixed, mild; number with observation", "setting": "150 mg/kg/day M", "result": 0},
      {"measurement": "Bone marrow, femur: Depletion, mixed, minimal; number with observation", "setting": "150 mg/kg/day M", "result": 1},
      {"measurement": "Bone marrow, femur: Depletion, mixed, moderate; number with observation", "setting": "150 mg/kg/day M", "result": 0},
      {"measurement": "Bone marrow, rib: Depletion, mixed, mild; number with observation", "setting": "150 mg/kg/day M", "result": 0},
      {"measurement": "Bone marrow, rib: Depletion, mixed, minimal; number with observation", "setting": "150 mg/kg/day M", "result": 1},
      {"measurement": "Bone marrow, rib: Depletion, mixed, moderate; number with observation", "setting": "150 mg/kg/day M", "result": 0},
      {"measurement": "Bone marrow, rib: Depletion, mixed; number with observation", "setting": "150 mg/kg/day M", "result": 1},
      {"measurement": "Bone marrow, sternum: Depletion, mixed, mild; number with observation", "setting": "150 mg/kg/day M", "result": 0},
      {"measurement": "Bone marrow, sternum: Depletion, mixed, minimal; number with observation", "setting": "150 mg/kg/day M", "result": 1},
      {"measurement": "Bone marrow, sternum: Depletion, mixed, moderate; number with observation", "setting": "150 mg/kg/day M", "result": 0},
      {"measurement": "Bone marrow, sternum: Depletion, mixed; number with observation", "setting": "150 mg/kg/day M", "result": 1},
      {"measurement": "Liver: Hypertrophy, hepatocellular, panlobular, mild; number with observation", "setting": "150 mg/kg/day M", "result": 3},
      {"measurement": "Liver: Hypertrophy, hepatocellular, panlobular, minimal; number with observation", "setting": "150 mg/kg/day M", "result": 0},
      {"measurement": "Thymus: Depletion lymphoid, generalized, mild; number with observation", "setting": "150 mg/kg/day M", "result": 0},
      {"measurement": "Thymus: Depletion lymphoid, generalized, moderate; number with observation", "setting": "150 mg/kg/day M", "result": 0},
      {"measurement": "Thymus: Depletion lymphoid, generalized; number with observation", "setting": "150 mg/kg/day M", "result": 0},
      {"measurement": "Thymus: Depletion, lymphoid, cortex, mild; number with observation", "setting": "150 mg/kg/day M", "result": 2},
      {"measurement": "Thymus: Depletion, lymphoid, cortex, minimal; number with observation", "setting": "150 mg/kg/day M", "result": 1},
      {"measurement": "Thymus: Depletion, lymphoid, cortex, moderate; number with observation", "setting": "150 mg/kg/day M", "result": 0},
      {"measurement": "mean cumulative body gain (Days 1-14)", "setting": "150 mg/kg/day M", "result": -0.28, "unit": "kg"},
      {"measurement": "Bone marrow, femur: Depletion, mixed; number with observation", "setting": "150 mg/kg/day M", "result": 1},
      {"measurement": "Liver: Hypertrophy, hepatocellular, panlobular; number with observation", "setting": "150 mg/kg/day M", "result": 3},
      {"measurement": "Thymus: Depletion, lymphoid, cortex; number with observation", "setting": "150 mg/kg/day M", "result": 3},
      {"measurement": "mortality", "setting": "400 mg/kg, first day of dosing", "result": "one male died"}
    ]}
  ]
}
